# ChEMBL document CHEMBL5441456, “ASAP - SARS-CoV-2 nsp3 macrodomain dose response” (2024)
# Values joined by “and” are separate entries in the source; they are usually repeats but may differ in a detail not shown here. Equal entries are not always repeated.
# Molecular target: Replicase polyprotein 1ab (Severe acute respiratory syndrome coronavirus 2, UniProt P0DTD1)
# Experiment: Functional biochemical assay to identify treatments for viral infectious disease that targets SARS-COV-2 nsp3 macrodomain, whereby the mechanism of action displaces an ADP-Ribose modified peptide from the binding site. Utilizing a time-resolved fluorescence method to measure binding by reading the emitted fluorescence intensity in two wavelengths.
row,Compound,IC50
1,CCNC(=O)c1cc2c(N[C@@H](c3ccc4c(c3)S(=O)(=O)CCC4)C(C)C)ncnc2[nH]1,56 nM and 100 nM and 20 nM and 34 nM and 19 nM and 33 nM and 53 nM and 32 nM and 42 nM
2,CNC(=O)c1cc2c(N[C@@H](c3ccc4c(c3)S(=O)(=O)CCC4)C(C)C)ncnc2[nH]1,52 nM (2×) and 78 nM and 24 nM and 48 nM and 38 nM and 35 nM and 60 nM
3,CC(C)[C@@H](Nc1ncnc2[nH]c(-c3cnn(CC(=O)N(C)C)c3)cc12)c1ccc2c(c1)S(=O)(=O)CCC2,39 nM and 55 nM and 30 nM and 26 nM and 45 nM and 29 nM and 33 nM
4,CC(C)[C@@H](Nc1ncnc2[nH]c(C(=O)NC3(CF)COC3)cc12)c1ccc2c(c1)OCCO2,1250 nM and 1740 nM
5,CC(C)[C@@H](Nc1ncnc2[nH]c(C(=O)NCc3ccno3)cc12)c1ccc2c(c1)OCCO2,792 nM and 829 nM
6,CC(C)[C@@H](Nc1ncnc2[nH]c(C(=O)Nc3cn(C)nc3O)cc12)c1ccc2c(c1)OCCO2,678 nM and 611 nM
7,Cc1ncn(C)c1NC(=O)c1cc2c(N[C@@H](c3ccc4c(c3)OCCO4)C(C)C)ncnc2[nH]1,10700 nM and 19700 nM
8,CC(C)[C@@H](Nc1ccnc2nn[nH]c12)c1ccc2c(c1)S(=O)(=O)CCC2,> 99500 nM
9,CC(C)[C@@H](Nc1ccnc2nccn12)c1ccc2c(c1)S(=O)(=O)CCC2,> 99500 nM
10,CC(C)[C@@H](Nc1ncnc2[nH]c(C(=O)NCc3c[nH]cn3)cc12)c1ccc2c(c1)OCCO2,1150 nM and 2570 nM
11,CC(C)[C@@H](Nc1ncnc2[nH]c([C@@]3(O)CCCNC3)cc12)c1ccc2c(c1)OCCO2,17800 nM and 13900 nM
12,CC(C)[C@@H](Nc1ncnc2[nH]c(C(=O)NCC(C)(C)C#N)cc12)c1ccc2c(c1)OCCO2,2100 nM and 4220 nM
13,CC(C)[C@@H](Nc1ncnc2[nH]c(C(=O)N[C@H]3[C@@H]4CN(C)C[C@@H]43)cc12)c1ccc2c(c1)OCCO2,1100 nM and 2060 nM
14,CC(C)[C@@H](Nc1ncnc2[nH]ccc12)c1cccc(S(C)(=O)=O)c1,96400 nM
15,CO[C@@H]1CCC[C@H]1NC(=O)c1cc2c(N[C@@H](c3ccc4c(c3)OCCO4)C(C)C)ncnc2[nH]1,1010 nM and 1340 nM
16,CC(C)[C@@H](Nc1ncnc2[nH]c(C(=O)NCCc3cnco3)cc12)c1ccc2c(c1)OCCO2,954 nM and 1910 nM
17,CC(C)[C@@H](Nc1ncnc2[nH]c(C(=O)N[C@H]3[C@@H]4COC[C@@H]43)cc12)c1ccc2c(c1)OCCO2,629 nM and 543 nM
18,CC(C)[C@@H](Nc1ccnc2[nH]ncc12)c1ccc2c(c1)S(=O)(=O)CCC2,> 99500 nM
19,CC(C)[C@@H](Nc1ncnc2[nH]c(C(=O)Nc3cnccc3O)cc12)c1ccc2c(c1)OCCO2,9980 nM and 17900 nM
20,CC(C)[C@@H](Nc1ncnc2[nH]c([C@@]3(O)CCOC3)cc12)c1ccc2c(c1)OCCO2,9980 nM and 23000 nM
21,CC(C)[C@@H](c1ccc2c(c1)OCCO2)N(C)c1ncnc2[nH]c(-c3cnn(CC(N)=O)c3)cc12,20100 nM

row,Compound,IC50
1,CC(C)[C@@H](Nc1ncnc2[nH]ccc12)c1ccc(F)c(C#N)c1,4150 nM and 16600 nM
2,CC(C)[C@@H](Nc1n[nH]c2ncccc12)c1ccc2c(c1)S(=O)(=O)CCC2,43500 nM
3,O=C(O)CC(NC(=O)c1ncnc2[nH]ccc12)c1ccc(NC2C[C@H]3CC(CO)C[C@@H]23)cc1 (some centres not stated),> 99500 nM
4,CNc1nccc(N[C@@H](c2ccc3c(c2)S(=O)(=O)CCC3)C(C)C)n1,> 99500 nM
5,Cc1cnn(C)c1NC(=O)c1cc2c(N[C@@H](c3ccc4c(c3)OCCO4)C(C)C)ncnc2[nH]1,27300 nM and > 99500 nM
6,CCc1[nH]nnc1NC(=O)c1cc2c(N[C@@H](c3ccc4c(c3)OCCO4)C(C)C)ncnc2[nH]1,4420 nM and 4280 nM
7,CC(C)[C@@H](Nc1ncnc2[nH]c(C(=O)NC[C@@H]3CCOC3)cc12)c1ccc2c(c1)OCCO2,580 nM and 1150 nM
8,CC(C)[C@@H](Nc1ncnc2[nH]c(C(=O)NCC3CN(C)C3)cc12)c1ccc2c(c1)OCCO2,866 nM and 790 nM
9,CNc1c[nH]c2ncnc(N[C@@H](c3ccc4c(c3)OCCO4)C(C)C)c12,28900 nM
10,CC(C)[C@@H](Nc1ncnc2[nH]c(C(=O)NCCC(F)F)cc12)c1ccc2c(c1)OCCO2,837 nM and 1340 nM
11,CC(C)[C@@H](Nc1ncnc2[nH]c(C(=O)NCC3(C#N)CC3)cc12)c1ccc2c(c1)OCCO2,1090 nM and 2640 nM
12,CC(C)[C@@H](Nc1nccc2[nH]c(=O)[nH]c12)c1ccc2c(c1)S(=O)(=O)CCC2,> 99500 nM
13,O=C1NCCc2ccc(CNc3ncnc4[nH]ccc34)cc21,> 99500 nM
14,COc1ccc([C@@H](NC(=O)c2ncnc3[nH]ccc23)C(C)(C)C#N)cc1,> 99500 nM
15,CC(C)[C@@H](Nc1ncnc2[nH]ccc12)c1ccc2c(c1)S(=O)(=O)N(C)CC2,5760 nM and 17000 nM
16,CC(C)[C@@H](Nc1ncnc2[nH]c(C(=O)NCc3cnco3)cc12)c1ccc2c(c1)OCCO2,639 nM and 1760 nM
17,CC(C)[C@@H](Nc1ncnc2[nH]c(C(=O)NCC3=NCCCN3)cc12)c1ccc2c(c1)OCCO2,3680 nM and 7820 nM
18,CC(C)[C@@H](Nc1ncnc2[nH]c(C(=O)Nc3cnoc3)cc12)c1ccc2c(c1)OCCO2,1970 nM and 5690 nM
19,CC(C)[C@@H](Nc1ncnc2[nH]c(C(=O)NCc3ncccn3)cc12)c1ccc2c(c1)OCCO2,2940 nM and 5870 nM
20,COc1nc(NC(=O)c2cc3c(N[C@@H](c4ccc5c(c4)OCCO5)C(C)C)ncnc3[nH]2)n[nH]1,47200 nM
21,CC(=O)N1CC(NC(=O)c2cc3c(N[C@@H](c4ccc5c(c4)OCCO5)C(C)C)ncnc3[nH]2)C1,793 nM and 2000 nM

row,Compound,IC50
1,CC(C)[C@@H](Nc1ncnc2[nH]c(C(=O)NCC3(F)CC3)cc12)c1ccc2c(c1)OCCO2,1360 nM and 2020 nM
2,CC(C)[C@@H](Nc1ncnc2[nH]c(C(=O)NCCc3c[nH]nn3)cc12)c1ccc2c(c1)OCCO2,1290 nM and 947 nM
3,CC(C)[C@@H](Nc1ncnc2[nH]c(C(=O)NCc3nncn3C)cc12)c1ccc2c(c1)OCCO2,1390 nM and 1230 nM
4,Cc1ccc([C@@H](Nc2ncnc3[nH]ccc23)C(C)C)cc1S(C)(=O)=O,7290 nM and 11300 nM
5,CC(C)[C@@H](Nc1cnc2[nH]cnc2c1)c1ccc2c(c1)S(=O)(=O)CCC2,> 99500 nM
6,CC(C)[C@@H](Nc1ncnc2[nH]c(C(=O)Nc3ncco3)cc12)c1ccc2c(c1)OCCO2,7240 nM and 5890 nM
7,Cc1ncc(CNC(=O)c2cc3c(N[C@@H](c4ccc5c(c4)OCCO5)C(C)C)ncnc3[nH]2)o1,695 nM and 623 nM
8,CC(C)[C@@H](Nc1ncnc2[nH]c(C(=O)NCC3(CO)CCC3)cc12)c1ccc2c(c1)OCCO2,1300 nM and 2350 nM
9,CC(C)[C@@H](c1ccc2c(c1)OCCO2)N(C)c1ncnc2[nH]c(Br)cc12,> 99500 nM
10,CC(C)[C@@H](Nc1ncnc2[nH]c(C(=O)NCCC3CN(C)C3)cc12)c1ccc2c(c1)OCCO2,894 nM
11,CC(C)[C@@H](Nc1ncnc2[nH]c(C(=O)N[C@@H]3CCN(C)C3)cc12)c1ccc2c(c1)OCCO2,414 nM and 502 nM
12,CC(C)[C@@H](Nc1ncnc2[nH]c(C(=O)O)cc12)c1ccc2c(c1)OCCO2,11700 nM and 11500 nM
13,CC(C)[C@@H](Nc1ncnc2[nH]c(C(=O)NCc3ccn(C)n3)cc12)c1ccc2c(c1)OCCO2,955 nM and 1040 nM
14,CC(C)[C@@H](Nc1ncnc2[nH]c(C(=O)NC3COC3)cc12)c1ccc2c(c1)OCCO2,743 nM and 1540 nM
15,CC(C)[C@@H](Nc1ncnc2[nH]c(C(=O)NCCc3cn[nH]c3)cc12)c1ccc2c(c1)OCCO2,1360 nM and 3400 nM
16,CC(C)[C@@H](c1ccc2c(c1)S(=O)(=O)CCC2)n1c(=O)[nH]c2c(N)ccnc21,> 99500 nM
17,CC(C)[C@@H](Nc1ncnc2[nH]c(C(=O)NC3CN(C)C3)cc12)c1ccc2c(c1)OCCO2,1440 nM and 3270 nM
18,COCCC1(NC(=O)c2cc3c(N[C@@H](c4ccc5c(c4)OCCO5)C(C)C)ncnc3[nH]2)CC1,2840 nM and 4420 nM
19,CC(C)[C@@H](Nc1ncnc2[nH]c(C(=O)NC34CC(C#N)(C3)C4)cc12)c1ccc2c(c1)OCCO2,1360 nM and 1930 nM
20,COc1cn[nH]c1NC(=O)c1cc2c(N[C@@H](c3ccc4c(c3)OCCO4)C(C)C)ncnc2[nH]1,72600 nM
